This passage reports inhibition results from PMC5540273, “Progress towards a public chemogenomic set for protein kinases and a call for contributions” (PLoS ONE, 2017).

What all share (assay): KINOMEscan competition binding
Assay [1] has as its target LIMK1 (Homo sapiens, UniProt P53667). Particulars: read-out: %Inh LIMK1.
The target in assay [2] is HIPK3 (Homo sapiens, UniProt Q9H422). Particulars: read-out: %Inh HIPK3.
Assay [3] deals with ACVR2A (Homo sapiens, UniProt P27037). The note with it: read-out: %Inh ACVR2A.
ACVR2A, sequence (P27037 20-513): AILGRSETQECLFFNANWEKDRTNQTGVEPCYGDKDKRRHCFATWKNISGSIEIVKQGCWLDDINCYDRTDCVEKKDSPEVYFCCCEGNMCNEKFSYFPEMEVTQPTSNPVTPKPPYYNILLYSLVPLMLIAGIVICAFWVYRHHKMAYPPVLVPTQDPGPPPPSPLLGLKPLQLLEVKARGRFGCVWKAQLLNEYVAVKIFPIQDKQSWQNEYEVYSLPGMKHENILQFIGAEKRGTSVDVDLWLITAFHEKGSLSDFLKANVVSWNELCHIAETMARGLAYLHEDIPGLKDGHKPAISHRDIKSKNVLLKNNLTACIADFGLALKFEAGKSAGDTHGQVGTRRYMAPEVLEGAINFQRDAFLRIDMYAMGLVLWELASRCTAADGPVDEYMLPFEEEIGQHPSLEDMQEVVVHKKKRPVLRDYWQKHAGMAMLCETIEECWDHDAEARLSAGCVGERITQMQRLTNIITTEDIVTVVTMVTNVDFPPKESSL
The target in assay [4] is CSNK1G2 (Homo sapiens, UniProt P78368). The note with it: read-out: %Inh CSNK1G2.
CSNK1G2, sequence (P78368 whole entry): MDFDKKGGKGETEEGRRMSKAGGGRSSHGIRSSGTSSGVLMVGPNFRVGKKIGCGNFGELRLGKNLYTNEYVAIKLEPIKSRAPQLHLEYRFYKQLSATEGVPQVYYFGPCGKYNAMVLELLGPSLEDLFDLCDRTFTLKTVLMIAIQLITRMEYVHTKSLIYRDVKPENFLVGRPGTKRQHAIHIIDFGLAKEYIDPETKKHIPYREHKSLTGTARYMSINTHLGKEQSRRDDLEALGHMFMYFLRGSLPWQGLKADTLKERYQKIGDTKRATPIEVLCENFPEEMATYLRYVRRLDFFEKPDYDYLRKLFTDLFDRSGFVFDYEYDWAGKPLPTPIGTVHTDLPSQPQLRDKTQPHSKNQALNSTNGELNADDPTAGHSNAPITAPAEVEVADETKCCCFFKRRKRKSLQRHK
Assay [5] deals with CAMK1G (Homo sapiens, UniProt Q96NX5). Particulars: read-out: %Inh CAMK1G.
CAMK1G, sequence (Q96NX5 whole entry): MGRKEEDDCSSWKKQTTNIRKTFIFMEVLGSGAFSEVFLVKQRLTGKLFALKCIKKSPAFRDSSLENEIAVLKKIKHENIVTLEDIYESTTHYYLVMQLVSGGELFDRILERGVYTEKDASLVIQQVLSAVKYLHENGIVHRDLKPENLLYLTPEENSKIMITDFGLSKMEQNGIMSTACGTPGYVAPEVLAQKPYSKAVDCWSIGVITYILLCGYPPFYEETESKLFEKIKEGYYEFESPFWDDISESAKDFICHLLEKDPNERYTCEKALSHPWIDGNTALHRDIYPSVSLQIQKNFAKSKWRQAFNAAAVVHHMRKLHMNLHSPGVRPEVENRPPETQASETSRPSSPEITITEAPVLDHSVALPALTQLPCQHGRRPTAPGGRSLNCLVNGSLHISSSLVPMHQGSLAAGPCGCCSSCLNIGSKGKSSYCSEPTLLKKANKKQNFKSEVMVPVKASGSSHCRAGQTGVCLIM
The target of assay [6] is BMPR1B (Homo sapiens, UniProt O00238). The note with it: read-out: %Inh BMPR1B.
BMPR1B, sequence (O00238 14-502): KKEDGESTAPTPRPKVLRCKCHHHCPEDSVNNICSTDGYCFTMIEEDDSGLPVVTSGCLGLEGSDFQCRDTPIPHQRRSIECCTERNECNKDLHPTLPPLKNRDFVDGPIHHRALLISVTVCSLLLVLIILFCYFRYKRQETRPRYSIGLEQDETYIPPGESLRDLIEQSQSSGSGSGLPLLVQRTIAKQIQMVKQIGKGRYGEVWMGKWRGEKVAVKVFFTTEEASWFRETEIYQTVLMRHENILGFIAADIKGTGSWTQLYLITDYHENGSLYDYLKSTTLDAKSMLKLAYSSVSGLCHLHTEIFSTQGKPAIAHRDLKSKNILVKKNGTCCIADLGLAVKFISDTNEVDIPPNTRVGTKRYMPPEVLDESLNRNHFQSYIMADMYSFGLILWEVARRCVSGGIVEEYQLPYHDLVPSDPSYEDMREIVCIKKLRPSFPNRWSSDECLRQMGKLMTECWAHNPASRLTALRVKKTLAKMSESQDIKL
In assay [7] the target is CDK3 (Homo sapiens, UniProt Q00526). Particulars: read-out: %Inh CDK3.
CDK3, sequence (Q00526 whole entry): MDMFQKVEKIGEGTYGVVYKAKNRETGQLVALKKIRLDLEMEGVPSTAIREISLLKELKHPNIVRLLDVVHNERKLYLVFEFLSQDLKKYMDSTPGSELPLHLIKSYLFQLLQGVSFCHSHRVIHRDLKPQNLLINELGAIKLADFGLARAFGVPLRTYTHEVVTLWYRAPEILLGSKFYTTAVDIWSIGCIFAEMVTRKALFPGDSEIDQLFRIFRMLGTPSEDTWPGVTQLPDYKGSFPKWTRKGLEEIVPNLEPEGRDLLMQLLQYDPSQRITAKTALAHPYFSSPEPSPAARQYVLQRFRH
Assay [8] concerns the target CDKL3 (Homo sapiens, UniProt Q8IVW4). Particulars: read-out: %Inh CDKL3.
The target of assay [9] is CDK2 (Homo sapiens, UniProt P24941). The note with it: read-out: %Inh CDK2.
For assay [10], the target named is T1, DRAK2 (Homo sapiens, UniProt O94768).
T1 sequence (O94768 1-372): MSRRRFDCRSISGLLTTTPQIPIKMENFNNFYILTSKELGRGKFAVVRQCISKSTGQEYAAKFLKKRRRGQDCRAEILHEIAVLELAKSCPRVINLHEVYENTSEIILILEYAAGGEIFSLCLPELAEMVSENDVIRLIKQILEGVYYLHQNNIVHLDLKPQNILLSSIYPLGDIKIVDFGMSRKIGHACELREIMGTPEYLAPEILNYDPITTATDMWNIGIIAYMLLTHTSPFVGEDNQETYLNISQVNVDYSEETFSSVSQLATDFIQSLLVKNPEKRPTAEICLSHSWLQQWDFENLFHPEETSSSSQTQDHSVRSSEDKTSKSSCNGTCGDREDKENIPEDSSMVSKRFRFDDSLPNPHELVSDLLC
Particulars: read-out: %Inh DRAK2.

Assay [11] has as its target ADCK3 (Homo sapiens, UniProt Q8NI60). Particulars: read-out: %Inh ADCK3.
Assay [12] addresses T2, FLT3 (Homo sapiens, UniProt P36888).
T2 sequence (P36888 27-993): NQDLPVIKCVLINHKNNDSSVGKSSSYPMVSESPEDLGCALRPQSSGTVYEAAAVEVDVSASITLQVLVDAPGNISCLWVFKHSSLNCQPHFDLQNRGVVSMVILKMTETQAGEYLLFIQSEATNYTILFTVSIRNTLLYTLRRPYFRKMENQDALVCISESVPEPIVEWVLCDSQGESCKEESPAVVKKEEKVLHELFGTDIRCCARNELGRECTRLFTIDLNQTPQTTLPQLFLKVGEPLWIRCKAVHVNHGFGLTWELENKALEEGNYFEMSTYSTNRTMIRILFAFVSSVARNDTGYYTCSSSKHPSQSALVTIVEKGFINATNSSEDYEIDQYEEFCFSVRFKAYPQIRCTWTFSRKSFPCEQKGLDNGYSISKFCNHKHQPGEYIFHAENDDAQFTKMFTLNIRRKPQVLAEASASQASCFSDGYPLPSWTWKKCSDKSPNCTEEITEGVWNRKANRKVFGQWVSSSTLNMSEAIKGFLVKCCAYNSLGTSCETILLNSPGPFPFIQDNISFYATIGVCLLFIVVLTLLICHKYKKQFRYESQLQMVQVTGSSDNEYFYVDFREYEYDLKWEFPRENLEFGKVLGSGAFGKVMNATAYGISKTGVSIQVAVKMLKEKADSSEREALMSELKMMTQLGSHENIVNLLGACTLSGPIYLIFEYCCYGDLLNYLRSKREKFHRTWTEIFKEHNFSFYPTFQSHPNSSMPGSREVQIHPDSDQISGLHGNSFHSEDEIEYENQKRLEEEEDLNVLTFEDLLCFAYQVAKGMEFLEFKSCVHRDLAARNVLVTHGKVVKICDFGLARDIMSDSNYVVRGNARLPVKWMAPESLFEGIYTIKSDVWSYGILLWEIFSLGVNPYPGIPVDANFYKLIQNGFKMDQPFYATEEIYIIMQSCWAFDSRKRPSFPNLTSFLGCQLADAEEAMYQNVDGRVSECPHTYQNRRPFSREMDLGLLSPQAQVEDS
Particulars: read-out: %Inh FLT3.

Assay [13] concerns the target T3, BMX (Homo sapiens, UniProt P51813).
T3 sequence (P51813 1-675): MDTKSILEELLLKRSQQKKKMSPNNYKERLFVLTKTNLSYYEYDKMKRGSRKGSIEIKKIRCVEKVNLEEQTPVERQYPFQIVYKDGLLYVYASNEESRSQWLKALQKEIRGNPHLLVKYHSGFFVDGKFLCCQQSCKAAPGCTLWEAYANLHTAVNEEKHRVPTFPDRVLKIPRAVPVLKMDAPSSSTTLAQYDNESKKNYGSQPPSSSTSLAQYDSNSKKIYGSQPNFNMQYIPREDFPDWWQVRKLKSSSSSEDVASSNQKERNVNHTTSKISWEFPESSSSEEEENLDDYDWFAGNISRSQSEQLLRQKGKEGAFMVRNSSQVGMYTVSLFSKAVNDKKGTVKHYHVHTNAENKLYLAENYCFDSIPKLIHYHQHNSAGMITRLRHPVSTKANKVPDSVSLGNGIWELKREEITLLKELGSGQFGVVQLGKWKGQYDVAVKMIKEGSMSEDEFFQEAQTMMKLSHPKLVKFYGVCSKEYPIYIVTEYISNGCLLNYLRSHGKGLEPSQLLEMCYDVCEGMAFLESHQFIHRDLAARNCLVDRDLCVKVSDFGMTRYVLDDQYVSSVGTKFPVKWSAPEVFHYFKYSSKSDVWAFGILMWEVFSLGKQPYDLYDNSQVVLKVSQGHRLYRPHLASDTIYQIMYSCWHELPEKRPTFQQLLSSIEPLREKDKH
The note with it: read-out: %Inh BMX.

LIMK1, sequence (P53667 whole entry): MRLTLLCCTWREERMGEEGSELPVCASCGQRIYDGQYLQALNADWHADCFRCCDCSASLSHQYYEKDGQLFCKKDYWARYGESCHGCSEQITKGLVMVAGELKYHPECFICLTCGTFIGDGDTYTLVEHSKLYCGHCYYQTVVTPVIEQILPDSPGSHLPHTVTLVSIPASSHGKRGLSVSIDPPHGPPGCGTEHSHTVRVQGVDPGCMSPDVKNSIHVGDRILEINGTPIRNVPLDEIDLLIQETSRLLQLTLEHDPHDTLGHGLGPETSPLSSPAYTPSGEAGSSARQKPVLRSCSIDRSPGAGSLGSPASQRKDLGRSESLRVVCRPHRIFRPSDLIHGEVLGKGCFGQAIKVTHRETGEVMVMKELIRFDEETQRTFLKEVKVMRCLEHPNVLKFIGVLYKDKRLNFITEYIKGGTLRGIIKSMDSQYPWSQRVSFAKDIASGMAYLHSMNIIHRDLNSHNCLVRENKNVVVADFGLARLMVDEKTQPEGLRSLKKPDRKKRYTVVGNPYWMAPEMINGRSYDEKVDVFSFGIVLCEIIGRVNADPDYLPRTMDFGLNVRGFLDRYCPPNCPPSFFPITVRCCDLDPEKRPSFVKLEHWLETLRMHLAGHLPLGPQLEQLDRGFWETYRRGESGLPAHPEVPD
ADCK3, sequence (Q8NI60 163-647): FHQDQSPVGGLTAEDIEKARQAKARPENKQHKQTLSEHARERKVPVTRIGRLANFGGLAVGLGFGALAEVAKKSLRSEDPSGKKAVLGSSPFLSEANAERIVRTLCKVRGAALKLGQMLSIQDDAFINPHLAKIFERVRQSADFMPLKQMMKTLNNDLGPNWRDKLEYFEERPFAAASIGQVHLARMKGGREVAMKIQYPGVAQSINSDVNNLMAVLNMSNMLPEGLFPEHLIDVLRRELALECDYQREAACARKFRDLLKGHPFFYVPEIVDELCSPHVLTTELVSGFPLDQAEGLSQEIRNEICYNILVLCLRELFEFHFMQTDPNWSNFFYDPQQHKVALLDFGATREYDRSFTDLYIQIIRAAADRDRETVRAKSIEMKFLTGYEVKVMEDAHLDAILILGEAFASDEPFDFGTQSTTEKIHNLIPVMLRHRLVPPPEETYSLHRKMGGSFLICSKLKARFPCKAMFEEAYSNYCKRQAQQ
CDKL3, sequence (Q8IVW4 whole entry): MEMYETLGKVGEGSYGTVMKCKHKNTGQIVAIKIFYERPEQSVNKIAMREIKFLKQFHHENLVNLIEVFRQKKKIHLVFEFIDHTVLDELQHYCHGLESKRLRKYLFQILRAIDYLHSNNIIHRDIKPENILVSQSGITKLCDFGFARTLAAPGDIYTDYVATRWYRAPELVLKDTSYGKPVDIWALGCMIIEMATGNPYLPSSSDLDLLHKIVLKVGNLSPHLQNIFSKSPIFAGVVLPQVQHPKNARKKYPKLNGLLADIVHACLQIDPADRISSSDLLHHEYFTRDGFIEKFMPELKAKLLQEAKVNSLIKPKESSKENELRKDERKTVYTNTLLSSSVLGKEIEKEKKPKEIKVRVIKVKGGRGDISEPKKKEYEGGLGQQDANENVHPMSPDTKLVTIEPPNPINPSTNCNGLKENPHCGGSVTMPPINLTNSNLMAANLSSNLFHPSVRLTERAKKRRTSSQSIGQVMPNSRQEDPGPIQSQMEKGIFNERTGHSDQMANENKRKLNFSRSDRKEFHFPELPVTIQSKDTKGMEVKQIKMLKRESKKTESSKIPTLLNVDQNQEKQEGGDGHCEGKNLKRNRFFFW

For the compound `Cn1cc(-c2cnc(N)c3c(-c4ccc5c(c4)CCN5C(=O)Cc4ccccc4)csc23)cn1` [UNC10225012A], the inhibition at 1 µM in assay [1] was determined as 49%; in assay [2], 7%; in assay [3], 0%; in assay [4], 7%; in assay [5], 0%; in [6] it was 6%. Also, the inhibition at 1 µM in assay [7] came to 1%; in assay [8], 4%; in assay [9] it was 0%; in assay [10], 9%; in [11], 7%; in assay [12], 99%. For the same compound, the inhibition at 1 µM in assay [13] was determined as 57%.
Consider `CS(=O)(=O)Cc1ccc(Nc2nccc(-c3c(-c4cccc(NC(=O)C5CCCCC5)c4)nn4ncccc34)n2)cc1` [UNC10225159A], for which the inhibition at 1 µM in [1] turned out to be 22%; in assay [2] it was 23%; in assay [3], 0%; in [4], 5%; in assay [5] it was 0%; in assay [6] it was 19%. Moreover, the inhibition at 1 µM in assay [7] came out at 0%; in assay [8], 0%; in [9], 0%; in [10], 0%; in assay [11], 24%; in assay [12] it was 88%. For the same compound, the inhibition at 1 µM in assay [13] stood at 37%.
As to `Cc1ccc(NC(=O)Nc2cccc(C(F)(F)F)c2)cc1` [UNC10225187A], the inhibition at 1 µM in [1] was determined as 0%; in assay [2], 0%; in [3], 2%; in assay [4], 1%; in assay [5] it was 10%; in assay [6] it was 0%. The inhibition at 1 µM came to 0% in assay [7]; 4% in assay [8]; 0% in assay [9]; 0% in [10]; 5% in assay [11]; 59% in assay [12]. Further, in assay [13], the inhibition at 1 µM was 0%.
With `COc1cccc(OC)c1C(=O)Nc1cccc(-c2nn3ccccc3c2-c2ccnc(Nc3cccc(F)c3)n2)c1` [UNC10225310A], the inhibition at 1 µM in [1] came to 31%; in [2] it was 0%; in assay [3] it was 7%; in assay [4], 17%; in assay [5], 0%; in assay [6] it was 21%. The inhibition at 1 µM is 0% in assay [7]; 3% in [8]; 0% in assay [9]; 12% in [10]; 0% in assay [11]; 49% in [12]. In assay [13], the inhibition at 1 µM was 21%.
Take `O=c1cc(N2CCOCC2)nc2n(Cc3cccc(Cl)c3Cl)c(C3CC3)nn12` [UNC10225469A]: the inhibition at 1 µM is 9% in assay [1]; 16% in assay [2]; 0% in assay [3]; 5% in [4]; 5% in [5]; 0% in assay [6]. Further, the inhibition at 1 µM in [7] was determined as 5%; in assay [8], 0%; in assay [9], 0%; in [10], 9%; in [11], 11%; in assay [12] it was 10%. Further, the inhibition at 1 µM in assay [13] stood at 19%.
